Source: patent US20240308968A1, “FUNGICIDAL SUBSTITUTED HETEROCYCLES” (FMC Corporation, priority 2021, published 2024)

Legend:
Assay type in all cases: in vivo
Zymoseptoria tritici = test: Test A: preventive spray on wheat seedlings, wheat leaf blotch disease rating; details: 100 = 100% disease control, 0 = no control; for pest or weed control at 50 ppm: Zymoseptoria tritici, 456 h
Text: (§1) General protocol for preparing test suspensions for Tests A-F: the test compounds were first dissolved in acetone in an amount equal to 3% of the final volume and then suspended at the desired concentration (in ppm) in acetone and purified water (50/50 mix by volume) containing 50 to 250 ppm of the surfactant PEG400 (polyhydric alcohol esters). The resulting test suspensions were then used in Tests A-F.
The test solution was sprayed to the point of run-off on wheat seedlings. The following day the seedlings were inoculated with a spore suspension of Zymoseptoria tritici (the causal agent of wheat leaf blotch) and incubated in a saturated atmosphere at 24° C. for 48 h, and then moved to a growth chamber at 20° C. for 17 days, after which time disease ratings were made. […]

[1] = tested on: Puccinia recondita f. sp. Tritici; test: Test B: preventive spray on wheat seedlings, wheat leaf rust disease rating; details: 100 = 100% disease control, 0 = no control; for pest or weed control at 50 ppm: Puccinia recondita, 192 h
Text: as §1
The test solution was sprayed to the point of run-off on wheat seedlings. The following day the seedlings were inoculated with a spore suspension of Puccinia recondita f. sp. Tritici (the causal agent of wheat leaf rust) and incubated in a saturated atmosphere at 20° C. for 24 h, and then moved to a growth chamber at 20° C. for 7 days, after which time disease ratings were made.
(§2) The test suspension was sprayed to the point of run-off on tomato seedlings. The following day the seedlings were inoculated with a spore suspension of Alternaria solani (the causal agent of tomato early blight) and incubated in a saturated atmosphere at 27° C. for 48 h, and then moved to a growth chamber at 20° C. for 3 days, after which time visual disease ratings were made. A rating of 100 indicates 100% disease control and a rating of 0 indicates no disease control (relative to the controls). A dash (-) indicates the compound was not tested.

[2] = tested on: Blumeria graminis f. sp. Tritici; test: Test C: preventive spray on wheat seedlings, wheat powdery mildew disease rating; details: 100 = 100% disease control, 0 = no control; for pest or weed control at 50 ppm: Blumeria graminis, 192 h
Text: as §1
The test suspension was sprayed to the point of run-off on wheat seedlings. The following day the seedlings were inoculated with a spore dust of Blumeria graminis f. sp. Tritici, (also known as Erysiphe graminis f. sp. Tritici, the causal agent of wheat powdery mildew) and incubated in a growth chamber at 20° C. for 8 days, after which time visual disease ratings were made.
as §2

Phakopsora pachyrhizi = test: Test D: preventive spray on soybean seedlings, Asian soybean rust disease rating; details: 100 = 100% disease control, 0 = no control; for pest or weed control at 50 ppm: Phakopsora pachyrhizi, 216 h
Text: as §1
The test solution was sprayed to the point of run-off on soybean seedlings. The following day the seedlings were inoculated with a spore suspension of Phakopsora pachyrhizi (the causal agent of Asian soybean rust) and incubated in a saturated atmosphere at 22° C. for 24 h and then moved to a growth chamber at 22° C. for 8 days, after which time visual disease ratings were made.
as §2

Botrytis cinerea = test: Test E: preventive spray on tomato seedlings, tomato Botrytis disease rating; details: 100 = 100% disease control, 0 = no control; for pest or weed control at 50 ppm: Botrytis cinerea, 120 h
Text: as §1
The test suspension was sprayed to the point of run-off on tomato seedlings. The following day the seedlings were inoculated with a spore suspension of Botrytis cinerea (the causal agent of tomato Botrytis) and incubated in a saturated atmosphere at 20° C. for 48 h, and then moved to a growth chamber at 24° C. for 3 days, after which time visual disease ratings were made.
as §2

Alternaria solani = test: Test F: preventive spray on tomato seedlings, tomato early blight disease rating; details: 100 = 100% disease control, 0 = no control; for pest or weed control at 50 ppm: Alternaria solani, 120 h
Text: as §1, §2

Structure (SMILES) | Test A disease control rating (Zymoseptoria tritici; 50 ppm) [%] | Test B disease control rating ([1]; 50 ppm) [%] | Test C disease control rating ([2]; 50 ppm) [%] | Test D disease control rating (Phakopsora pachyrhizi; 50 ppm) [%] | Test E disease control rating (Botrytis cinerea; 50 ppm) [%] | Test F disease control rating (Alternaria solani; 50 ppm) [%] | further results
CCOC(=O)c1c(-c2ccc(F)cc2F)n(-c2cc(OC)cc(OC)c2)nc(C(=O)O)c1=O [Compound 89] | – | – | – | – | – | – | Test A disease control rating (Zymoseptoria tritici; 250 ppm): 0%; Test B disease control rating ([1]; 250 ppm): 0%; Test C disease control rating ([2]; 250 ppm): 0%; Test D disease control rating (Phakopsora pachyrhizi; 250 ppm): 0%; Test E disease control rating (Botrytis cinerea; 250 ppm): 0%; Test F disease control rating (Alternaria solani; 250 ppm): 0%
COc1cc(OC)cc(-c2cc(C#N)c(=O)n(N)c2-c2c(F)cc(F)cc2F)c1 [Compound 153] | 0 | 80 | 0 | 0 | 0 | 0 | –
COc1cc(OC)cc(-n2nc(CO)c(=O)c(C)c2-c2ccc(F)cc2F)c1 [Compound 23, 6-(2,4-difluorophenyl)-1-(3,5-dimethoxyphenyl)-3-(hydroxymethyl)-5-methyl-4(1H)-pyridazinone] | – | – | – | – | – | – | pest or weed control at 50 ppm (Zymoseptoria tritici; 50 ppm): 3%; pest or weed control at 50 ppm ([1]; 50 ppm): 68%; pest or weed control at 50 ppm ([2]; 50 ppm): 0%; pest or weed control at 50 ppm (Phakopsora pachyrhizi; 50 ppm): 43%; pest or weed control at 50 ppm (Botrytis cinerea; 50 ppm): 46%; pest or weed control at 50 ppm (Alternaria solani; 50 ppm): 53%
COc1cc(OC)c(Cl)c(-n2nc(CO)c(=O)c(C)c2-c2ccc(F)cc2F)c1 [Compound 30, 1-(2-chloro-3,5-dimethoxyphenyl)-6-(2,4-difluorophenyl)-3-(hydroxymethyl)-5-methyl-4(1H)-pyridazinone] | – | – | – | – | – | – | pest or weed control at 50 ppm (Zymoseptoria tritici; 50 ppm): 63%; pest or weed control at 50 ppm ([1]; 50 ppm): 100%; pest or weed control at 50 ppm ([2]; 50 ppm): 98%; pest or weed control at 50 ppm (Phakopsora pachyrhizi; 50 ppm): 92%; pest or weed control at 50 ppm (Botrytis cinerea; 50 ppm): 94%; pest or weed control at 50 ppm (Alternaria solani; 50 ppm): 99%
Cc1c(-c2ccc(F)cc2Cl)c(-c2ccsc2Br)nn(C)c1=O [Compound 6] | 100 | 100 | 99 | 78 | 91 | 99 | –
COc1ccc(Cl)c(-n2nc(Br)c(=O)c(Cl)c2-c2ccc(F)cc2Cl)c1 [Compound 101] | 98 | 99 | 89 | 99 | 98 | 98 | –
COc1cc(OC)cc(-n2nc(CCl)c(=O)c(C)c2-c2ccc(F)cc2F)c1 [Compound 25] | 18 | 0 | 43 | 75 | 34 | 0 | –
COc1ccc(Cl)c(-c2nn(C)c(=O)c(C)c2-c2ccsc2C)c1 [Compound 18] | 96 | 92 | 93 | 13 | 97 | 0 | –
Cc1c(-c2ccc(F)cc2Cl)c(-c2ccsc2Cl)nn(C)c1=O [Compound 7, 5-(2-chloro-4-fluorophenyl)-6-(2-chloro-3-thienyl)-2,4-dimethyl-3(2H)-pyridazinone] | – | – | – | – | – | – | pest or weed control at 50 ppm (Zymoseptoria tritici; 50 ppm): 99%; pest or weed control at 50 ppm ([1]; 50 ppm): 100%; pest or weed control at 50 ppm ([2]; 50 ppm): 99%; pest or weed control at 50 ppm (Phakopsora pachyrhizi; 50 ppm): 100%; pest or weed control at 50 ppm (Botrytis cinerea; 50 ppm): 97%; pest or weed control at 50 ppm (Alternaria solani; 50 ppm): 99%
COc1cc(OC)c(Cl)c(-n2nc(I)c(=O)c(C)c2-c2ccc(F)cc2Cl)c1 [Compound 96] | 100 | 100 | 99 | 100 | 98 | 100 | –
COc1cc(OC)c(Cl)c(-n2c(-c3ccc(F)cc3Cl)c(C)c(=O)n(C)c2=O)c1 [Compound 37, 1-(2-chloro-3,5-dimethoxyphenyl)-6-(2-chloro-4-fluorophenyl)-3,5-dimethyl-2,4(1H,3H)-pyrimidinedione] | – | – | – | – | – | – | pest or weed control at 50 ppm (Zymoseptoria tritici; 50 ppm): 100%; pest or weed control at 50 ppm ([1]; 50 ppm): 100%; pest or weed control at 50 ppm ([2]; 50 ppm): 98%; pest or weed control at 50 ppm (Phakopsora pachyrhizi; 50 ppm): 77%; pest or weed control at 50 ppm (Botrytis cinerea; 50 ppm): 95%; pest or weed control at 50 ppm (Alternaria solani; 50 ppm): 53%
COc1cc(OC)cc(-n2nc(CC#N)c(=O)c(C)c2-c2ccc(F)cc2F)c1 [Compound 31] | 61 | 0 | 0 | 0 | 9 | 0 | –
COc1ccc(Cl)c(-c2cc(C#N)c(=O)n(C)c2-c2ccc(F)cc2Cl)c1 [Compound 154] | 100 | 98 | 35 | 59 | 98 | 0 | –
COc1ccc(Cl)c(-c2nn(C)c(=O)c(C)c2-c2cnccc2C)c1 [Compound 21, 6-(2-chloro-5-methoxyphenyl)-2,4-dimethyl-5-(4-methyl-3-pyridinyl)-3(2H)-pyridazinone] | – | – | – | – | – | – | pest or weed control at 50 ppm (Zymoseptoria tritici; 50 ppm): 54%; pest or weed control at 50 ppm ([1]; 50 ppm): 68%; pest or weed control at 50 ppm ([2]; 50 ppm): 86%; pest or weed control at 50 ppm (Phakopsora pachyrhizi; 50 ppm): 25%; pest or weed control at 50 ppm (Botrytis cinerea; 50 ppm): 96%; pest or weed control at 50 ppm (Alternaria solani; 50 ppm): 0%
CCOC(=O)c1nn(-c2cc(OC)cc(OC)c2Cl)c(-c2ccc(F)cc2)c(C(=O)OCC)c1=O [Compound 126] | 0 | 28 | 0 | 0 | 0 | 0 | –
Cc1cnn(-c2nn(C)c(=O)c(C)c2-c2ccc(F)cc2Cl)c1 [Compound 11] | 70 | 0 | 97 | 0 | 91 | 24 | –
CCn1c(-c2c(F)cc(F)cc2F)c(-c2cc(OC)c(Cl)c(OC)c2)cc(C#N)c1=O [Compound 72] | 93 | 98 | 21 | 77 | 90 | 0 | –
COc1cc(OC)c(Cl)c(-n2nc(NC(=O)OC(C)(C)C)c(=O)c(C)c2-c2ccc(F)cc2Cl)c1 [Compound 86] | – | – | – | – | – | – | Test A disease control rating (Zymoseptoria tritici; 250 ppm): 83%; Test B disease control rating ([1]; 250 ppm): 98%; Test C disease control rating ([2]; 250 ppm): 0%; Test D disease control rating (Phakopsora pachyrhizi; 250 ppm): 0%; Test E disease control rating (Botrytis cinerea; 250 ppm): 43%; Test F disease control rating (Alternaria solani; 250 ppm): 0%
COc1cc(OC)c(Cl)c(-n2nc(C)c(=O)c(C)c2-c2ccc(F)cc2F)c1 [Compound 33, 1-(2-chloro-3,5-dimethoxyphenyl)-6-(2,4-difluorophenyl)-3,5-dimethyl-4(1H)-pyridazinone] | – | – | – | – | – | – | pest or weed control at 50 ppm (Zymoseptoria tritici; 50 ppm): 100%; pest or weed control at 50 ppm ([1]; 50 ppm): 100%; pest or weed control at 50 ppm ([2]; 50 ppm): 100%; pest or weed control at 50 ppm (Phakopsora pachyrhizi; 50 ppm): 100%; pest or weed control at 50 ppm (Botrytis cinerea; 50 ppm): 98%; pest or weed control at 50 ppm (Alternaria solani; 50 ppm): 94%
COC(=O)c1nn(-c2cc(OC)cc(OC)c2)c(-c2ccc(F)cc2F)c(C)c1=O [Compound 24] | 8 | 0 | 0 | 0 | 0 | 0 | –
COc1cc(-c2cc(C#N)c(=O)n(C)c2-c2ccc(F)cc2Cl)ccc1Cl [Compound 160] | – | – | – | – | – | – | Test A disease control rating (Zymoseptoria tritici; 250 ppm): 46%; Test B disease control rating ([1]; 250 ppm): 80%; Test C disease control rating ([2]; 250 ppm): 0%; Test D disease control rating (Phakopsora pachyrhizi; 250 ppm): 0%; Test E disease control rating (Botrytis cinerea; 250 ppm): 94%
